The text below walks through data of patent US20260271928A1, “CONTROL OF PESTS RESISTANT TO INSECTICIDES” (Syngenta Crop Protection Ag, priority 2023, published 2026).

A value given as a limit tells only on which side of the number the result lay.

One experiment deals with Resistant Myzus persicae. Nature of the experiment: Resistant Myzus persicae (rMP). It counts as in vivo. The conditions noted are these: field-collected 2009, Southern France.
Description: Pepper plants were infested with an Myzus persicae population of mixed ages. One day after infestation the plants were treated with the diluted test solutions in a spray chamber. 5 days after treatment samples were assessed for mortality.
Take `CC1(C)[C@H](C(=O)O[C@H](C#N)c2cccc(Oc3ccccc3)c2)[C@@H]1/C=C(\Cl)C(F)(F)F` (racemic) [Lambda-cyhalothrin]: the “resistance of the rMP population to the insecticide” value is given as more than 5000 fold.

Another experiment has as its target T1, vesicular acetylcholine transporter (VAChT) (Lucilia sericata, UniProt Z9IC98WFD0).
T1 sequence (Z9IC98WFD0 1-593): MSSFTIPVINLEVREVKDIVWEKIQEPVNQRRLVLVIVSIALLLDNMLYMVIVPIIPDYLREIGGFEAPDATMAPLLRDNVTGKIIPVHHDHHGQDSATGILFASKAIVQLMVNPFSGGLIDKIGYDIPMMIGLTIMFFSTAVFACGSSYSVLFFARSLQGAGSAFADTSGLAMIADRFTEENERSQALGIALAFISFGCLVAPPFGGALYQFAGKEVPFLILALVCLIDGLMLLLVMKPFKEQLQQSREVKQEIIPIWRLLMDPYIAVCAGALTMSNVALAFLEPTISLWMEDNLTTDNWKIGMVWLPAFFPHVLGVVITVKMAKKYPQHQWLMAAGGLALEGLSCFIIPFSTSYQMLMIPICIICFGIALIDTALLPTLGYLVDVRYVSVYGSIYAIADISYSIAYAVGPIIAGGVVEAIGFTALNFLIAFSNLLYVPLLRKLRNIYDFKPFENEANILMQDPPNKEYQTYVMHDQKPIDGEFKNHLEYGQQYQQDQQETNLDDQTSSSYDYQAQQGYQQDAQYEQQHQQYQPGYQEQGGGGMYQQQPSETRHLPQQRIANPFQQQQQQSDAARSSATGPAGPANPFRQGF
Nature of the experiment: [3H]-A1 radioligand binding and competitive displacement, Lucilia sericata head membrane. The conditions noted are these: Lucilia head membrane, 9 nM [3H]-A1; read-out: Affinity at the [3H]-A1 binding site, competitive displacement. On the procedure:
Methods herein were generally adapted from this publication.
Binding of [^3H]-A1 was measured using Lucilia sericata head membrane suspended in 50 mM Tris HCL buffer (pH7.4) containing 120 mM NaCl, and 100 mM EDTA, at a protein concentration of 1 mg/ml for dispensing into 96 well plates to give 50 μg protein per well. [^3H]-A1 was added to plates as a 37 MBq/ml ethanol stock dissolved in 2.2 ml assay buffer to give an approximate final well concentration of 9 nM. Test compounds were incubated at 25° C. for 90 min with 9 nM [^3H]-A1 (or a range of concentrations for saturation analysis) at either 8 rates (where prepared manually) or 6 or 10 rates where prepared using robotics. The binding incubation was terminated by vacuum filtration through glass fibre filter mats (PerkinElmerFilterMat A, Seer Green, UK), pre-treated with 0.5% polyethyleneimine and mounted on a Tomtec cell harvester. The filters were then washed rapidly with ice-cold water, dried and bound radioactivity measured using an EG&GWallac betaplate scintillation counter after impregnating the filter with solid scintillant (PerkinElmer MeltiLex). Non specific binding was subtracted from the counts at each data point to give the specific binding. The amount of displacement was calculated as a % of the control and the IC50 calculated from a curve fitted using a single-exponential algorithm.
Data was fitted with a single-exponential model.
To identify the insecticidal target-protein for alkylysulfones we examined the ability of a range of ligands with identified target proteins to displace [^3H]-A1 from its site on Lucilia membranes (see Table X3).
`CCS(=O)(=O)c1cc(C(F)(F)F)cnc1-c1nc2cc(C(F)(F)F)ncc2n1C` [A2]: the IC50 came to 39 nM. As for `CCS(=O)(=O)c1cc(C(F)(F)F)cnc1-c1nc2cc(C(F)(F)F)cnc2n1C` [A3], the IC50 was 10 nM.

Turning to `CCS(=O)(=O)c1cc(C(F)(F)F)cnc1-c1nnc(-c2cc(C(F)(F)F)ccn2)n1C` [C1], the IC50 was found to be 6.3 nM.

Still in this experiment, the particulars now being: Lucilia membranes; ligands with identified target proteins.
As for `Cc1ccc(/N=C/N(C)/C=N/c2ccc(C)cc2C)c(C)c1` [Amitraz], the “[3H]-A1 displacement IC50” value is “Inactive or IC50>”. Consider `Cc1cc(Cl)ccc1N=CN(C)C` [Chlordimeform], for which the “[3H]-A1 displacement IC50” value is “Inactive or IC50>”.

The same experiment, now with this note: Lucilia membranes; ligands with identified target proteins; read-out: [3H]-A1 displacement IC50.
`O=C(c1ccnc(Cl)c1)N1CC2(CCN(C/C=C/c3ccc(Cl)cc3)CC2)c2cc(F)ccc21` [5-F-CASPP]: the IC50 was 2.3 nM.

Take `CNC(=O)O/N=C/C(C)(C)SC` [Aldicarb]: the IC50 was more than 52600 nM. Take `Nc1cccc2c1CC(N1CCC(c3ccccc3)CC1)C(O)C2` (centres unmarked) [Aminobenzovesamicol]: the IC50 was found to be 17.6 nM. Turning to `CCCCCC[C@H]1C(=O)O[C@H](C)[C@H](NC(=O)c2cccc(NC=O)c2O)C(=O)O[C@@H](C)[C@@H]1OC(=O)CC(C)C` [Antimycin A1], the IC50 is more than 18200 nM. The same measure, in the same setting: next, `CNC(=O)c1cc(Cl)cc(C)c1NC(=O)c1cc(Br)nn1-c1ncccc1Cl` [Chlorantraniliprole]: more than 20800 nM; `CNC(=O)c1cc(C#N)cc(C)c1NC(=O)c1cc(Br)nn1-c1ncccc1Cl` [Cyantraniliprole]: more than 21200 nM. Still for that read-out and setting: next, `COC(=O)C12Cc3cc(Cl)ccc3C1=NN(C(=O)Nc1ccc(OC(F)(F)F)cc1)CO2` (centres unmarked) [DCJW]: more than 21300 nM. As for `ClC1=C(Cl)[C@]2(Cl)[C@@H]3[C@@H]4C[C@@H]([C@H]5O[C@@H]45)[C@@H]3[C@@]1(Cl)C2(Cl)Cl` [Dieldrin], the IC50 was more than 26500 nM. As to `ClC1=C(Cl)C2(Cl)C3C4CC(C5OC45)C3C1(Cl)C2(Cl)Cl` (centres unmarked) [Endrin], the IC50 is more than 26500 nM. Still for that read-out and setting: next, `CC(C)C(C(=O)OC(C#N)c1cccc(Oc2ccccc2)c1)c1ccc(Cl)cc1` (centres unmarked) [Fenvalerate]: more than 23900 nM; `N#Cc1nn(-c2c(Cl)cc(C(F)(F)F)cc2Cl)c(N)c1[S+]([O-])C(F)(F)F` (centres unmarked) [Fipronil]: more than 22900 nM; `CC(C)(C)N(NC(=O)c1ccc(Cl)cc1)C(=O)c1ccccc1` [Halofenozide]: more than 30300 nM. For `O=[N+]([O-])NC1=NCCN1Cc1ccc(Cl)nc1` [Imidacloprid], the IC50 is more than 19800 nM. As for `COC(=O)N(C(=O)N1CO[C@@]2(C(=O)OC)Cc3cc(Cl)ccc3C2=N1)c1ccc(OC(F)(F)F)cc1` [Indoxacarb], the IC50 was more than 19000 nM. As for `CCN(CC)c1nc(C)cc(OP(=S)(OC)OC)n1` [Pirimiphos-methyl], the IC50 was more than 32800 nM. For `COC1CCC2(CC1)NC(=O)C(c1cc(C)ccc1C)=C2O` (centres unmarked) [Spirotetramat enol], the IC50 was more than 33200 nM. As to `CCc1ccc(C(=O)NN(C(=O)c2cc(C)cc(C)c2)C(C)(C)C)cc1` [Tebufenozide], the IC50 is more than 28400 nM. On to `CC(C)=CC1C(C(=O)OCN2C(=O)C3=C(CCCC3)C2=O)C1(C)C` (centres unmarked) [Tetramethrin], for which the IC50 came out at 17400 nM. On to Emamectin Benzoate, for which the IC50 is 11300 nM.

For Spinosad, the IC50 is more than 13700 nM.

Staying with this experiment, now noted: Lucilia sericata head membrane, 9 nM [3H]-A1; read-out: IC50 Displacement Values of [3H]-A1.
Take `CCS(=N)(=O)c1cc(C(F)(F)F)cnc1-c1nc2cc(C(F)(F)F)cnc2n1C` (centres unmarked) [VAChT-1]: the IC50 worked out at 100 nM. With `CCS(=O)(=O)c1cc(C2(C#N)CC2)cnc1-c1nc2cc(C(F)(F)F)cnc2n1C` [VAChT-7], the IC50 turned out to be 8 nM. Consider `CCS(=O)(=O)c1cccnc1-c1nc2cc(S(=O)(=O)C(F)(F)F)ccc2o1` [VAChT-13], for which the IC50 was 2 nM.

For the molecule `CCS(=O)(=O)c1ccc(-n2cncn2)nc1-c1nc2cc(C(F)(F)F)cnc2n1C` [VAChT-16], the IC50 was 10 nM. On the same count and under the same terms, next, `CCS(=O)(=O)c1c(-c2nc3cc(C(F)(F)F)cnc3n2C)nc2ccc(C(F)(F)F)cn12` [VAChT-19]: 2 nM; `CCS(=O)(=O)c1cc(C2(C#N)CC2)cnc1-c1nc2cc3c(cc2n1C)OC(F)(F)O3` [VAChT-20]: 4 nM; `CC[S@](=N)(=O)c1cc(OC(C)(C)C#N)cnc1-c1nc2cc(C(F)(F)F)cnc2n1C` [VAChT-27]: 25 nM. For `CC[S@@](=N)(=O)c1cc(C2(C#N)CC2)cnc1-c1nc2cc(C(F)(F)F)ncc2n1C` [VAChT-34], the IC50 worked out at 40 nM.

For `CCS(=N)(=O)c1cc(C2(C#N)CC2)cnc1-c1nc2cc(C(F)(F)F)nnc2n1C` (centres unmarked) [VAChT-35], the IC50 is 79 nM.

Staying with this experiment, now noted: read-out: Affinity at the [3H]-A1 binding site, competitive displacement; Lucilia head membrane, 9 nM [3H]-A1.
In the case of `CCS(=O)(=O)c1cccnc1-c1nc2cc(S(=O)(=O)C(F)(F)F)ccc2o1` [B1], the IC50 came to 2 nM.

Still in this experiment, the particulars now being: read-out: [3H]-A1 displacement IC50.
With `CN/C(=N/CC1CCOC1)N[N+](=O)[O-]` (centres unmarked) [Dinotofuran], the IC50 was more than 49500 nM.

For a further experiment, the system named is Resistant Plutella xylostella. Put plainly: Resistant Plutella xylostella (rPLU). The conditions noted are these: collected 2013, Changhua, Taiwan. It is filed as in vivo. On the procedure:
Chinese cabbage plants were treated with the diluted test solutions in a spray chamber. After drying, the leaves were cut off and placed in petri dishes with wetted filter paper. One day after treatment, the leaves were infested with 10 Plutella xylostella larvae (L3). Samples were assessed 4 days after infestation for mortality and growth regulation.
Resistant Plutella xylostella (rPLU)
A number of target-sites mutations were identified in this strain which confer resistance to pyrethroids (L1014F, T929I), organophosphates and carbamates (mAChE: A298S and G324A), and organochlorines (rdl: A298S), and diamides (ryr: G4546E).
For the molecule `CC1(C)[C@H](C(=O)O[C@H](C#N)c2cccc(Oc3ccccc3)c2)[C@@H]1/C=C(\Cl)C(F)(F)F` (racemic) [Lambda-cyhalothrin], the “resistance of the rPLU strain to the insecticide” value (“resistance of the rPLU strain” below) is given as more than 800 fold. On to `CCOP(=S)(OCC)Oc1nc(Cl)c(Cl)cc1Cl` [chlorpyrifos], for which the “resistance of the rPLU strain” value amounted to 100 fold.

With `Cc1cc(C(F)(C(F)(F)F)C(F)(F)F)ccc1NC(=O)c1cccc(I)c1C(=O)NC(C)(C)CS(C)(=O)=O` [flubendiamide], the “resistance of the rPLU strain” value worked out at 300 fold. As to abamectin, the “resistance of the rPLU strain” value is given as more than 200 fold.

The same experiment, now with this note: resistant strain, L3 larvae on Chinese cabbage, assessed 4 days after infestation; 0 = BP80 >200 ppm.
As for `CCS(=O)(=O)c1c(N2Cc3ncc(C(F)(F)F)cc3C2=O)nc(-c2ccc(C3(C#N)CC3)cc2)n1C` [P77, 1-[4-[5-ethyl-sulfonyl-1-methyl-4-[5-oxo-3-(trifluoromethyl)-7H-pyrrolo[3,4-b]pyridin-6-yl]imidazol-2-yl]phenyl]cyclopro-panecarbonitrile], the “pBP80 r-PLU” value came out at 5.8.

For the next experiment, the system named is Resistant Bemisia tabaci. Put plainly: Resistant Bemisia tabaci (rBT). It counts as in vivo. The conditions noted are these: biotype Q, field-collected 2000, Almeria, Spain. On the procedure: Cotton leaf discs were placed upside down in petri dishes on water agar and treated with the diluted test solutions in a spray chamber. After drying, leaf discs were infested with 10 adult Bemisia tabaci. Dishes were covered with a fabric filter and sealed with a perforated plastic lid. 4 days after treatment samples were assessed for mortality.
Resistant Bemisia tabaci (rBT)
Biotype Q originally field-collected in 2000 from Almeria, Spain. […] The strain carried the mutation L925I in the voltage-gated sodium channel conferring resistance to pyrethroids. It also had higher expression of the p450 CYP6CM1 conferring metabolic resistance to neonicotinoids.
On to `CC1(C)[C@H](C(=O)O[C@H](C#N)c2cccc(Oc3ccccc3)c2)[C@@H]1/C=C(\Cl)C(F)(F)F` (racemic) [Lambda-cyhalothrin], for which the “resistance of the rBT population to the insecticide” value was 40 fold.

In a further experiment the test system is Plutella xylostella. Nature of the experiment: Plutella xylostella (diamond back moth), larvae, feeding/contact (sPLU). The conditions noted are these: sensitive strain, L3 larvae on Chinese cabbage, assessed 4 days after infestation; 0 = BP80 >200 ppm. It counts as in vivo. On the procedure:
Plutella xylostella (Diamond Back Moth), Larvae, Feeding/Contact (sPLU) Chinese cabbage plants were treated with the diluted test solutions in a spray chamber. After drying, the leaves were cut off and placed in petri dishes with wetted filter paper. One day after treatment, the leaves were infested with 10 Plutella xylostella larvae (L3). Samples were assessed 4 days after infestation for mortality and growth regulation.
In the case of `CCS(=O)(=O)c1c(N2Cc3ncc(C(F)(F)F)cc3C2=O)nc(-c2ccc(C3(C#N)CC3)cc2)n1C` [P77, 1-[4-[5-ethyl-sulfonyl-1-methyl-4-[5-oxo-3-(trifluoromethyl)-7H-pyrrolo[3,4-b]pyridin-6-yl]imidazol-2-yl]phenyl]cyclopro-panecarbonitrile], the “pBP80 s-PLU” value worked out at 5.8.

Another experiment relates to Resistant Nilaparvata lugens. Put plainly: Resistant Nilaparvata lugens (rNIL). The conditions noted are these: collected 2005, Karnataka, India. It is filed as in vivo. On the procedure:
Rice plants were treated with the diluted test solutions in a spray chamber. After drying, plants were infested with ~20 Nilaparvata lugens nymphs (N5). 7 days after the treatment samples were assessed for mortality. The adults were then removed and 15 days after the treatment samples were assessed for effect on F1 generation.
Resistant Nilaparvata lugens (rNIL)
Originally collected from Hosa-Hally, Karnataka district, India in 2005.
Turning to `CN1COCN(Cc2cnc(Cl)s2)/C1=N\[N+](=O)[O-]` [Thiamethoxam], the “resistance of the rNIL strain to the insecticide” value (shortened to “resistance of the rNIL strain”) amounted to 200 fold. On to `CN/C(=N\[N+](=O)[O-])NCc1cnc(Cl)s1` [clothianidin], for which the “resistance of the rNIL strain” value is 200 fold.

Turning to `CCN(Cc1ccc(Cl)nc1)/C(=C/[N+](=O)[O-])NC` [nitenpyram], the “resistance of the rNIL strain” value is recorded as 30 fold.
